Source: PubChem BioAssay (NCI)
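These data come from cells grown in 96-well plates and exposed to compound for 48 hours at five concentrations. TGI: concentration producing complete growth inhibition.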

How the values were obtained:
Test in all cases: NCI tumour cell line growth inhibition, 48 h
NCI-H460 lung = test system: NCI-H460 lung
U251 CNS = test system: U251 CNS
DU-145 prostate = test system: DU-145 prostate
A498 renal = test system: A498 renal
EKVX NSCLC = test system: EKVX NSCLC
HOP-62 NSCLC = test system: HOP-62 NSCLC
MDA-MB-231 breast = test system: MDA-MB-231 breast
HL-60(TB) leukemia = test system: HL-60(TB) leukemia
CAKI-1 renal = test system: CAKI-1 renal
SN12C renal = test system: SN12C renal
HOP-92 NSCLC = test system: HOP-92 NSCLC

N#Cc1nc(COCCOCc2ccc(F)cc2)oc1N
TGI (NCI-H460 lung): > 100 µM
TGI (U251 CNS): > 100 µM
TGI (DU-145 prostate): > 100 µM
TGI (A498 renal): > 100 µM
TGI (EKVX NSCLC): > 100 µM
TGI (HOP-62 NSCLC): > 100 µM
TGI (MDA-MB-231 breast): > 100 µM
TGI (HL-60(TB) leukemia): > 100 µM
TGI (CAKI-1 renal): > 100 µM
TGI (SN12C renal): > 100 µM

O=C1Oc2cc3c(c4cccc1c24)O[C@H](c1ccccc1)[C@@H](c1ccccc1)[C@@H]3c1ccc(Cl)cc1
TGI (HOP-92 NSCLC): 67.9 µM
TGI (NCI-H460 lung): > 100 µM
TGI (U251 CNS): 50.1 µM
TGI (DU-145 prostate): > 100 µM
TGI (EKVX NSCLC): > 100 µM
TGI (HOP-62 NSCLC): 42.8 µM
TGI (MDA-MB-231 breast): 52.3 µM
TGI (HL-60(TB) leukemia): > 100 µM
TGI (CAKI-1 renal): > 100 µM
TGI (SN12C renal): > 100 µM

COc1ccccc1CNC(=O)[C@H](Cc1ccc(O)cn1)NC(C)=O
TGI (HOP-92 NSCLC): > 100 µM
TGI (NCI-H460 lung): > 100 µM
TGI (U251 CNS): > 100 µM
TGI (DU-145 prostate): > 100 µM
TGI (A498 renal): > 100 µM
TGI (EKVX NSCLC): > 100 µM
TGI (HOP-62 NSCLC): > 100 µM
TGI (HL-60(TB) leukemia): > 100 µM
TGI (CAKI-1 renal): > 100 µM
TGI (SN12C renal): > 100 µM

CCN(CC)CCO/N=C1/C=C2CCC3C(CC[C@@]4(C)C3CC[C@]4(C)O)[C@@]2(C)CC1 (some centres not stated)
TGI (HOP-92 NSCLC): 21 µM
TGI (NCI-H460 lung): 15.3 µM
TGI (U251 CNS): 11.2 µM
TGI (DU-145 prostate): 34.5 µM
TGI (A498 renal): 0.878 µM
TGI (EKVX NSCLC): 42.9 µM
TGI (HOP-62 NSCLC): 21 µM
TGI (MDA-MB-231 breast): 36 µM
TGI (CAKI-1 renal): 20.1 µM
TGI (SN12C renal): 16.3 µM

COCCOC(=O)C(C)=[N+]=[N-]
TGI (NCI-H460 lung): > 100 µM
TGI (U251 CNS): > 100 µM
TGI (DU-145 prostate): > 100 µM
TGI (A498 renal): > 100 µM
TGI (EKVX NSCLC): > 100 µM
TGI (HOP-62 NSCLC): > 100 µM
TGI (MDA-MB-231 breast): > 100 µM
TGI (CAKI-1 renal): > 100 µM
TGI (SN12C renal): > 100 µM

C/C=C/[C@H](O[Si](C)(C)C(C)(C)C)[C@@H](O)/C=C/C(=O)OCC
TGI (HOP-92 NSCLC): 46.3 µM
TGI (NCI-H460 lung): 34.6 µM
TGI (U251 CNS): 35.5 µM
TGI (DU-145 prostate): > 100 µM
TGI (A498 renal): 67.9 µM
TGI (EKVX NSCLC): 45.4 µM
TGI (HOP-62 NSCLC): 39.8 µM
TGI (MDA-MB-231 breast): 66 µM
TGI (CAKI-1 renal): 34.2 µM
TGI (SN12C renal): 48.1 µM

COc1cc2c(cc1OC)C(=O)N(NC1=NCCN1)C2=O
TGI (NCI-H460 lung): > 100 µM
TGI (U251 CNS): > 100 µM
TGI (DU-145 prostate): > 100 µM
TGI (A498 renal): > 100 µM
TGI (EKVX NSCLC): > 100 µM
TGI (HOP-62 NSCLC): > 100 µM
TGI (MDA-MB-231 breast): > 100 µM
TGI (HL-60(TB) leukemia): > 100 µM
TGI (CAKI-1 renal): > 100 µM
TGI (SN12C renal): > 100 µM

COc1cccc(-c2nc(-c3cnccn3)n(COCCO)n2)c1
TGI (HOP-92 NSCLC): > 100 µM
TGI (NCI-H460 lung): > 100 µM
TGI (U251 CNS): > 100 µM
TGI (DU-145 prostate): > 100 µM
TGI (HOP-62 NSCLC): > 100 µM
TGI (MDA-MB-231 breast): > 100 µM
TGI (HL-60(TB) leukemia): > 100 µM
TGI (SN12C renal): > 100 µM

N#CCCN(CCN(CCC#N)C(=O)Nc1ccccc1)C(=O)Nc1ccccc1
TGI (HOP-92 NSCLC): > 100 µM
TGI (NCI-H460 lung): > 100 µM
TGI (U251 CNS): > 100 µM
TGI (DU-145 prostate): > 100 µM
TGI (A498 renal): > 100 µM
TGI (EKVX NSCLC): > 100 µM
TGI (HOP-62 NSCLC): 55 µM
TGI (MDA-MB-231 breast): > 100 µM
TGI (HL-60(TB) leukemia): > 100 µM
TGI (SN12C renal): > 100 µM

Cc1cc2c(cc1Cl)SC(NNc1ccc([N+](=O)[O-])cc1)=NS2(=O)=O
TGI (NCI-H460 lung): > 10 µM
TGI (U251 CNS): > 10 µM
TGI (DU-145 prostate): > 10 µM
TGI (A498 renal): > 10 µM
TGI (EKVX NSCLC): > 10 µM
TGI (HOP-62 NSCLC): > 10 µM
TGI (MDA-MB-231 breast): > 10 µM
TGI (HL-60(TB) leukemia): > 10 µM
TGI (CAKI-1 renal): > 10 µM
TGI (SN12C renal): > 10 µM

CC1(C)O[C@@H](CBr)C[C@H](C[C@H]2C[C@@H](O)C[C@@H](CCOCc3ccccc3)O2)O1
TGI (HOP-92 NSCLC): 77.5 µM
TGI (NCI-H460 lung): 87.1 µM
TGI (U251 CNS): > 100 µM
TGI (DU-145 prostate): 61.8 µM
TGI (A498 renal): 48.6 µM
TGI (EKVX NSCLC): 33 µM
TGI (HOP-62 NSCLC): 42.8 µM
TGI (MDA-MB-231 breast): > 100 µM
TGI (CAKI-1 renal): 51.3 µM
TGI (SN12C renal): 79.4 µM
